Here are results for 26 compounds from patent US8653100B2 (AbbVie Inc., priority 2008, dated 2014).

Structures are written as SMILES. Structures can show the parent of a compound that is named as a salt.

human GlyT1c transporter, sequence (P48067 whole entry): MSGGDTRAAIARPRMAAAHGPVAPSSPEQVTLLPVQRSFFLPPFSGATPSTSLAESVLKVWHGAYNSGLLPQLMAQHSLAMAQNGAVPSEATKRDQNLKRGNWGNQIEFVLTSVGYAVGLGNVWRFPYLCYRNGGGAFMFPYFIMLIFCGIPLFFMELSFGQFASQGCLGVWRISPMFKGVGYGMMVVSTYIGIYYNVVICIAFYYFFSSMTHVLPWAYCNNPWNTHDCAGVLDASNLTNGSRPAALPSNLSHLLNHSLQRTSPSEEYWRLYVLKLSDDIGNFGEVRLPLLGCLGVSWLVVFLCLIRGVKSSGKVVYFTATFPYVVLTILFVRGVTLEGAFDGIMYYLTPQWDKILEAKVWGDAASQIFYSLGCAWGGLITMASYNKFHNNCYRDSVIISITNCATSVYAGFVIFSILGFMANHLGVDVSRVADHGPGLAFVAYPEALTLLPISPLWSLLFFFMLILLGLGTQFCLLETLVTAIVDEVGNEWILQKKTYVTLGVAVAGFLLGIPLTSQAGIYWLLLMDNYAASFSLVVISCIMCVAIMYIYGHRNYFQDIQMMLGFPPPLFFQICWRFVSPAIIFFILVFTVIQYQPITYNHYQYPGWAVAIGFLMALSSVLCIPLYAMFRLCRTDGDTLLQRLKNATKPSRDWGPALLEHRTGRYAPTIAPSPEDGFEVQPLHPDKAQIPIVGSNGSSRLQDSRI

For one assay, the target named is human GlyT1c transporter (Homo sapiens (Human), UniProt P48067). The experiment in a line: Radioligand binding assay using recombinant CHO cell membranes expressing human GlyT1. Conditions: examples 88-204, radioligand not specified by footnote, hydrochloride, read-out: radioligand binding Kiapp. As to the method:
2. Radioligand binding assays using recombinant CHO cell membranes expressing human GlyT1:
Radioligand binding to human GlyT1c transporter-expressing membranes was carried out as described in Mezler et al., Molecular Pharmacology 74:1705-1715, 2008.
More specifically, [^3H]-(R)-NPTS radioligand binding to human GlyT1c transporter-expressing membranes was measured in duplicate in a total volume of 200 μl in 96-well plates. To 100 μl of membrane suspension (yielding a final membrane protein concentration of 50 μg/ml) in assay buffer (120 mM NaCl, 2 mM KCl, 10 mM Hepes, 1 mM MgCl2, 1 mM CaCl2, pH 7.5) […] of [^3H]-(R)-NPTS (0.5 nM final) were added in assay buffer. For competition experiments 10 μl of buffer or unlabeled compound solution obtained from dilution series of test compounds in DMSO followed. An intermediate 1:10 dilution in assay buffer yielded a final DMSO concentration of 1%. Non-specific binding was determined in the presence of 10 μM Org24598 (or its racemate Org24461) for [^3H]-(R)-NPTS. After incubation at room temperature for 1 h, the incubation mixture was harvested (Tomtec Mach III U Harvester) through 96-well GF/B filter plates (PerkinElmer), presoaked for 1 h with 40 μl per well of 0.1% polyethylene-imine (PEI). After washing twice with ice-cold 50 mM Tris-HCl pH 7.4 buffer, drying and addition of 35 μl scintillator (BetaplateScint, PerkinElmer) per well followed. The radioactivity was determined by liquid scintillation spectrometry in a MicroBeta (PerkinElmer) plate counter.
Data analysis: For binding of [^3H]-(R)-NPTS to cell membranes, the calculation of Kd and Bmax values from the saturation binding assays and the IC50 values from the displacement binding was performed by iterative non-linear regression analysis adapted from the ‘Ligand’ program (Munson and Rodbard, 1980). Radioligand displacement curves in absence or in presence of increasing concentrations of tested compounds were fitted using a one-site fit and the apparent Ki values were calculated from the IC50 values using the Cheng-Prusoff equation (Cheng and Prusoff 1973).
Regarding `O=S(=O)(NCCOc1ccc2c(c1)[C@H](C1(c3ccc(Cl)cc3)CCC1)NCC2)c1cccnc1` [Example 141, N-[2-({(1S)-1-[1-(4-Chlorophenyl)cyclobutyl]-1,2,3,4-tetrahydroisoquinolin-7-yl}oxy)ethyl]pyridine-3-sulfonamide hydrochloride], the Ki was no more than 100 nM.

The same assay, now with this note: examples 88-204, radioligand not specified by footnote, read-out: radioligand binding Kiapp.
As to `CCCS(=O)(=O)NCCOc1ccc2c(c1)C(C1(c3cccc(Cl)n3)CCC1)NCC2` (centres unmarked) [Example 105, N-[2-({1-[1-(6-Chloropyridin-2-yl)cyclobutyl]-1,2,3,4-tetrahydroisoquinolin-7-yl}oxy)ethyl]propane-1-sulfonamide dihydrochloride], the Ki was no more than 100 nM.

Consider `CC(C)(c1ccc(Cl)cc1)C1NCCc2ccc(C#N)cc21` (centres unmarked) [Example 107, 1-[2-(4-Chlorophenyl)propan-2-yl]-1,2,3,4-tetrahydroisoquinoline-7-carbonitrile hydrochloride], for which the Ki is no more than 1000 nM.

With `O=S(=O)(CCCOc1ccc2c(c1)C(C1(c3ccc(Cl)cc3)CCC1)NCC2)Nc1ccccn1` (centres unmarked) [Example 109, 3-({1-[1-(4-Chlorophenyl)cyclobutyl]-1,2,3,4-tetrahydroisoquinolin-7-yl}oxy)-N-(pyridin-2-yl)propane-1-sulfonamide dihydrochloride], the Ki is no more than 1000 nM.

With `O=S(=O)(NCCOc1ccc2c(c1)C(C1(c3ccc(Cl)cc3)CCC1)NCC2)c1ccc(CCF)cc1` (centres unmarked) [Example 110, N-[2-({1-[1-(4-Chlorophenyl)cyclobutyl]-1,2,3,4-tetrahydroisoquinolin-7-yl}oxy)ethyl]-4-(2-fluoroethyl)benzenesulfonamide hydrochloride], the Ki was no more than 1000 nM.

`Cn1cnc(S(=O)(=O)NCC(=O)Nc2ccc3c(c2)C(C2(c4ccc(Cl)cc4)CCC2)NCC3)c1` (centres unmarked) [Example 111, N-{1-[1-(4-Chlorophenyl)cyclobutyl]-1,2,3,4-tetrahydroisoquinolin-7-yl}-N˜2˜-[(1-methyl-1H-imidazol-4-yl)sulfonyl]glycinamide dihydrochloride]: the Ki was no more than 1000 nM.

With `Cn1cc(S(=O)(=O)NCC(=O)Nc2ccc3c(c2)C(C2(c4ccc(Cl)cc4)CCC2)NCC3)cn1` (centres unmarked) [Example 113, N-{1-[1-(4-Chlorophenyl)cyclobutyl]-1,2,3,4-tetrahydroisoquinolin-7-yl}-N˜2˜-[(1-methyl-1H-pyrazol-4-yl)sulfonyl]glycinamide hydrochloride], the Ki is no more than 1000 nM.

As for `O=S(=O)(NCCOc1ccc2c(c1)C(C1(c3ccc(Cl)cc3)CCC1)NCC2)c1ccc(CCCF)cc1` (centres unmarked) [Example 114, N-[2-({1-[1-(4-Chlorophenyl)cyclobutyl]-1,2,3,4-tetrahydroisoquinolin-7-yl}oxy)ethyl]-4-(3-fluoropropyl)benzenesulfonamide hydrochloride], the Ki is no more than 1000 nM.

In the case of `O=S(=O)(Nc1ccc(Oc2ccc3c(c2)C(C2(c4ccc(Cl)cc4)CCC2)NCC3)cc1)c1cccs1` (centres unmarked) [Example 115, N-[4-({1-[1-(4-Chlorophenyl)cyclobutyl]-1,2,3,4-tetrahydroisoquinolin-7-yl}oxy)phenyl]thiophene-2-sulfonamide hydrochloride], the Ki was no more than 1000 nM.

On to `CCCS(=O)(=O)Nc1ccc(Oc2ccc3c(c2)C(C2(c4ccc(Cl)cc4)CCC2)NCC3)nc1` (centres unmarked) [Example 119, N-[6-({1-[1-(4-Chlorophenyl)cyclobutyl]-1,2,3,4-tetrahydroisoquinolin-7-yl}oxy)pyridin-3-yl]propane-1-sulfonamide dihydrochloride], for which the Ki was no more than 10000 nM.

For the compound `CCCS(=O)(=O)Oc1ccc2c(c1)C(C1(c3cccc(F)c3)CCC1)NCC2` (centres unmarked) [Example 120, 1-[1-(3-Fluorophenyl)cyclobutyl]-1,2,3,4-tetrahydroisoquinolin-7-yl propane-1-sulfonate hydrochloride], the Ki is no more than 10000 nM.

Take `O=S(=O)(Nc1ccccc1Oc1ccc2c(c1)C(C1(c3ccc(Cl)cc3)CCC1)NCC2)c1cccnc1` (centres unmarked) [Example 122, N-[2-({1-[1-(4-Chlorophenyl)cyclobutyl]-1,2,3,4-tetrahydroisoquinolin-7-yl}oxy)phenyl]pyridine-3-sulfonamide dihydrochloride]: the Ki is no more than 10000 nM.

On to `O=S(=O)(Nc1ccc(Oc2ccc3c(c2)C(C2(c4ccc(Cl)cc4)CCC2)NCC3)nc1)c1cccs1` (centres unmarked) [Example 124, N-[6-({1-[1-(4-Chlorophenyl)cyclobutyl]-1,2,3,4-tetrahydroisoquinolin-7-yl}oxy)pyridin-3-yl]thiophene-2-sulfonamide dihydrochloride], for which the Ki was no more than 10000 nM.

With `CCCS(=O)(=O)NCc1ccc2c(c1)C(C1(c3ccccn3)CCC1)NCC2` (centres unmarked) [Example 125, N-({1-[1-(Pyridin-2-yl)cyclobutyl]-1,2,3,4-tetrahydroisoquinolin-7-yl}methyl)propane-1-sulfonamide trifluoroacetate], the Ki is no more than 10000 nM.

With `O=S(=O)(Nc1cccnc1Oc1ccc2c(c1)C(C1(c3ccc(Cl)cc3)CCC1)NCC2)c1cccs1` (centres unmarked) [Example 127, N-[2-({1-[1-(4-Chlorophenyl)cyclobutyl]-1,2,3,4-tetrahydroisoquinolin-7-yl}oxy)pyridin-3-yl]thiophene-2-sulfonamide dihydrochloride], the Ki was no more than 10000 nM.

Regarding `CCCS(=O)(=O)Nc1cccnc1Oc1ccc2c(c1)C(C1(c3ccc(Cl)cc3)CCC1)NCC2` (centres unmarked) [Example 128, N-[2-({1-[1-(4-Chlorophenyl)cyclobutyl]-1,2,3,4-tetrahydroisoquinolin-7-yl}oxy)pyridin-3-yl]propane-1-sulfonamide dihydrochloride], the Ki was no more than 10000 nM.

For the compound `N#Cc1ccc2c(c1)C(C1(c3ccccn3)CCC1)NCC2` (centres unmarked) [Example 129, 1-[1-(Pyridin-2-yl)cyclobutyl]-1,2,3,4-tetrahydroisoquinoline-7-carbonitrile hydrochloride], the Ki is no more than 10000 nM.

`O=S(=O)(Nc1ccc(Oc2ccc3c(c2)C(C2(c4ccc(Cl)cc4)CCC2)NCC3)nc1)c1cccnc1` (centres unmarked) [Example 131, N-[6-({1-[1-(4-Chlorophenyl)cyclobutyl]-1,2,3,4-tetrahydroisoquinolin-7-yl}oxy)pyridin-3-yl]pyridine-3-sulfonamide trihydrochloride]: the Ki is no more than 10000 nM.

For the compound `O=S(=O)(CC1CC1)NCc1ccc2c(c1)C(C1(c3ccccn3)CCC1)NCC2` (centres unmarked) [Example 134, 1-Cyclopropyl-N-({1-[1-(pyridin-2-yl)cyclobutyl]-1,2,3,4-tetrahydroisoquinolin-7-yl}methyl)methanesulfonamide trifluoroacetate], the Ki was no more than 10000 nM.

`O=S(=O)(Nc1cccnc1Oc1ccc2c(c1)C(C1(c3ccc(Cl)cc3)CCC1)NCC2)c1cccnc1` (centres unmarked) [Example 136, N-[2-({1-[1-(4-Chlorophenyl)cyclobutyl]-1,2,3,4-tetrahydroisoquinolin-7-yl}oxy)pyridin-3-yl]pyridine-3-sulfonamide trihydrochloride]: the Ki was no more than 10000 nM.

Turning to `NCCCNS(=O)(=O)CCCOc1ccc2c(c1)C(C1(c3ccc(Cl)cc3)CCC1)NCC2` (centres unmarked) [Example 137, N-(3-Aminopropyl)-3-({1-[1-(4-chlorophenyl)cyclobutyl]-1,2,3,4-tetrahydroisoquinolin-7-yl}oxy)propane-1-sulfonamide dihydrochloride], the Ki is no more than 10000 nM.

As to `CCCS(=O)(=O)NCCOc1ccc2c(c1)C(C(C)(C)c1ccc(Cl)cc1)NCC2` (centres unmarked) [Example 139, N-[2-({1-[2-(4-Chlorophenyl)propan-2-yl]-1,2,3,4-tetrahydroisoquinolin-7-yl}oxy)ethyl]propane-1-sulfonamide], the Ki was no more than 100 nM.

For `O=S(=O)(CCCF)NCCOc1ccc2c(c1)C(C1(c3ccc(Cl)cc3)CCC1)NCC2` (centres unmarked) [Example 140, N-[2-({1-[1-(4-Chlorophenyl)cyclobutyl]-1,2,3,4-tetrahydroisoquinolin-7-yl}oxy)ethyl]-3-fluoropropane-1-sulfonamide hydrochloride], the Ki is no more than 100 nM.

For `CN(C)S(=O)(=O)NCCOc1ccc2c(c1)C(C1(c3ccc(Cl)cc3)CCC1)NCC2` (centres unmarked) [Example 143, N′-[2-({1-[1-(4-Chlorophenyl)cyclobutyl]-1,2,3,4-tetrahydroisoquinolin-7-yl}oxy)ethyl]-N,N-dimethylsulfuric diamide hydrochloride], the Ki was no more than 100 nM.

For the compound `O=S(=O)(CCC(F)(F)F)NCCOc1ccc2c(c1)C(C1(c3ccc(Cl)cc3)CCC1)NCC2` (centres unmarked) [Example 144, N-[2-({1-[1-(4-Chlorophenyl)cyclobutyl]-1,2,3,4-tetrahydroisoquinolin-7-yl}oxy)ethyl]-3,3,3-trifluoropropane-1-sulfonamide hydrochloride], the Ki is no more than 100 nM.

As to `NCCS(=O)(=O)NCCOc1ccc2c(c1)[C@H](C1(c3ccc(Cl)cc3)CCC1)NCC2` [Example 146, 2-Amino-N-[2-({(1S)-1-[1-(4-chlorophenyl)cyclobutyl]-1,2,3,4-tetrahydroisoquinolin-7-yl}oxy)ethyl]ethanesulfonamide dihydrochloride], the Ki is no more than 100 nM.
